Results on 30 molecules are retold here after US9452990B2, “Complement pathway modulators and uses thereof” (NOVARTIS AG, priority 2012, dated 2016).

By IC50 is commonly meant the concentration needed to halve the response being measured.

The test addresses human complement factor B (CVF-Bb complex) (Homo sapiens (Human), UniProt P00751). The test is described as follows: Human Complement Factor B ELISA Assay. The test is classed as biochemical. To be noted: CVF-Bb complex 3 nM, 1 hour preincubation with compound at room temperature, human C3 substrate 1 μM, C3a quantified by ELISA; read-out: Factor B IC50. The method, then:
Human Complement Factor B ELISA Assay
CVF-Bb complex prepared from purified cobra venom factor (1 μM), recombinant human complement factor B (expressed in drosophila cells and purified using standard methods) and human complement factor D (expressed in E. Coli, refolded and purified using standard methods). CVF-Bb complex at 3 nM concentration was incubated with test compound at various concentrations for 1 hour at room temperature in PBS pH 7.4 containing 10 mM MgCl2 and 0.05% (w/v) CHAPS. Human complement C3 substrate purified from plasma was added to a final concentration of 1 μM. After 1 hour incubation at room temperature, the enzyme reaction was stopped by addition of a cocktail of concentrated pan-protease inhibitors. The product of the reaction, C3a, was quantified by means of an enzyme-linked-immunosorbent assay. IC50 values were calculated from percentage of inhibition of CVF-Bb activity as a function of test compound concentration.
Background: In an ELISA, binding on a coated surface is turned into a signal by an enzyme label.

Where a name gives a salt, the structure may show the parent alone.

In the case of `COc1cc2c(N)nc(N3CCN(C(=O)/C=C/C4CC4)CC3)nc2c(F)c1OC` [Example 1, (E)-1-[4-(4-Amino-8-fluoro-6,7-dimethoxy-quinazolin-2-yl)-piperazin-1-yl]-3-cyclopropyl-propenone hydrochloride], the IC50 stood at 500 nM. With `COc1cc2c(N)nc(N3CCN(C(=O)/C=C/c4ccc(C#N)cc4)CC3)nc2c(F)c1OC` [Example 2, 4-{(E)-3-[4-(4-Amino-8-fluoro-6,7-dimethoxy-quinazolin-2-yl)-piperazin-1-yl]-3-oxo-propenyl}-benzonitrile], the IC50 amounted to 16 nM. Consider `COC[C@H]1CN(C(=O)/C=C/C2CC2)CCN1c1nc(N)c2cc(OC)c(OC)c(F)c2n1` [Example 3], for which the IC50 was determined as 2060 nM. The result for `COCCC1CN(C(=O)/C=C/C2CC2)CCN1c1nc(N)c2cc(OC)c(OC)c(F)c2n1` (stereo not drawn) [Example 4, (E)-1-[4-(4-Amino-8-fluoro-6,7-dimethoxy-quinazolin-2-yl)-3-(2-methoxy-ethyl)-piperazin-1-yl]-3-cyclopropyl-propenone] reads 16500 nM; that for `COc1cc2c(N)nc(N3CCN(C(=O)/C=C/C4CC4)CC3)nc2c(C#N)c1OC` [Example 5, 4-Amino-2-[4-((E)-3-cyclopropyl-acryloyl)-piperazin-1-yl]-6,7-dimethoxy-quinazoline-8-carbonitrile], 440 nM.

For the molecule `COc1cc2c(N)nc(N3CCN(C(=O)/C=C/C4CCC4)C[C@@H]3C)nc2c(F)c1OC` [Example 6, (E)-1-[(S)-4-(4-Amino-8-fluoro-6,7-dimethoxy-quinazolin-2-yl)-3-methyl-piperazin-1-yl]-3-cyclobutyl-propenone], the IC50 was 190 nM.

Turning to `COc1cc2c(N)nc(N3CCN(C(=O)/C=C/c4ccc(C#N)cc4)C[C@@H]3C)nc2c(F)c1OC` [Example 7, 4-{(E)-3-[(S)-4-(4-Amino-8-fluoro-6,7-dimethoxy-quinazolin-2-yl)-3-methyl-piperazin-1-yl]-3-oxo-propenyl}-benzonitrile], the IC50 was found to be 20 nM.

As to `CC[C@H]1CN(C(=O)/C=C/c2ccc(C#N)cc2)CCN1c1nc(N)c2cc(OC)c(OC)c(F)c2n1` [Example 8, 4-{(E)-3-[(S)-4-(4-Amino-8-fluoro-6,7-dimethoxy-quinazolin-2-yl)-3-ethyl-piperazin-1-yl]-3-oxo-propenyl}-benzonitrile], the IC50 stood at 11 nM. For `CCC[C@H]1CN(C(=O)/C=C/c2ccc(C#N)cc2)CCN1c1nc(N)c2cc(OC)c(OC)c(F)c2n1` [Example 9, 4-{(E)-3-[(S)-4-(4-Amino-8-fluoro-6,7-dimethoxy-quinazolin-2-yl)-3-propyl-piperazin-1-yl]-3-oxo-propenyl}-benzonitrile], the IC50 was found to be 20 nM. For `COc1cc2c(N)nc(N3CCN(C(=O)/C=C/c4ccc(C#N)cc4)C[C@@H]3c3ccccc3)nc2c(F)c1OC` [Example 10, 4-{(E)-3-[(S)-4-(4-Amino-8-fluoro-6,7-dimethoxy-quinazolin-2-yl)-3-phenyl-piperazin-1-yl]-3-oxo-propenyl}-benzonitrile], the IC50 amounted to 6 nM. As for `COCCOc1c(OC)cc2c(N)nc(N3CCN(C(=O)/C=C/c4ccc(C#N)cc4)CC3)nc2c1F` [Example 11, 4-((E)-3-{4-[4-Amino-8-fluoro-6-methoxy-7-(2-methoxy-ethoxy)-quinazolin-2-yl]-piperazin-1-yl}-3-oxo-propenyl)-benzonitrile], the IC50 turned out to be 230 nM. For `COc1cc2nc(N3CCN(C(=O)/C=C/C4CC4)CC3)nc(N)c2c(F)c1OC` [Example 12, (E)-1-[4-(4-Amino-5-fluoro-6,7-dimethoxy-quinazolin-2-yl)-piperazin-1-yl]-3-cyclopropyl-propenone], the IC50 was 140 nM. The result for `COc1cc2c(N)nc(N3CCN(C(=O)/C=C/C4CC4)CC3)nc2c(Cl)c1OC` [Example 13, (E)-1-(4-(4-Amino-8-chloro-6,7-dimethoxyquinazolin-2-yl)piperazin-1-yl)-3-cyclopropylprop-2-en-1-one] reads 1050 nM; that for `COc1cc2nc(N3CCN(C(=O)/C=C/C4CC4)CC3)nc(N)c2c(Cl)c1OC` [Example 14, (E)-1-(4-(4-Amino-5-chloro-6,7-dimethoxyquinazolin-2-yl)piperazin-1-yl)-3-cyclopropylprop-2-en-1-one], 3290 nM. As for `COc1cc2c(N)nc(N3CCN(C(=O)/C=C/C4CC4)CC3)nc2c(Br)c1OC` [Example 15, (E)-1-(4-(4-Amino-8-bromo-6,7-dimethoxyquinazolin-2-yl)piperazin-1-yl)-3-cyclopropylprop-2-en-1-one], the IC50 turned out to be 1280 nM. Regarding `COc1cc2c(N)nc(N3CCN(C(=O)/C=C/c4ccc(F)cc4)CC3)nc2c(Cl)c1OC` [Example 16, (E)-1-(4-(4-Amino-8-chloro-6,7-dimethoxyquinazolin-2-yl)piperazin-1-yl)-3-(4-fluorophenyl)prop-2-en-1-one], the IC50 amounted to 1440 nM. As to `COc1cc2c(N)nc(N3CCN(C(=O)c4cc5ccccc5[nH]4)CC3)nc2c(F)c1OC` [Example 17, [4-(4-Amino-8-fluoro-6,7-dimethoxy-quinazolin-2-yl)-piperazin-1-yl]-(1H-indol-2-yl)-methanone], the half-maximal inhibitory concentration (IC50) came out at 340 nM. For `COc1cc2c(N)nc(N3CCN(C(=O)c4cc5cc(C#N)ccc5[nH]4)CC3)nc2c(F)c1OC` [Example 18, 2-[4-(4-Amino-8-fluoro-6,7-dimethoxy-quinazolin-2-yl)-piperazine-1-carbonyl]-1H-indole-5-carbonitrile], the IC50 was determined as 20 nM. Turning to `COc1cc2c(N)nc(N3CCN(C(=O)c4cc5cc(O)ccc5[nH]4)CC3)nc2c(F)c1OC` [Example 19, [4-(4-Amino-8-fluoro-6,7-dimethoxy-quinazolin-2-yl)-piperazin-1-yl]-(5-hydroxy-1H-indol-2-yl)-methanone], the IC50 is 80 nM. With `COc1cc2c(N)nc(N3CCN(C(=O)c4cc5c(OC)cccc5[nH]4)CC3)nc2c(F)c1OC` [Example 20, [4-(4-Amino-8-fluoro-6,7-dimethoxy-quinazolin-2-yl)-piperazin-1-yl]-(4-methoxy-1H-indol-2-yl)-methanone], the IC50 is 9630 nM. As for `COc1cc2c(N)nc(N3CCN(C(=O)c4cc5cc(F)ccc5[nH]4)CC3)nc2c(F)c1OC` [Example 21, [4-(4-Amino-8-fluoro-6,7-dimethoxy-quinazolin-2-yl)-piperazin-1-yl]-(5-fluoro-1H-indol-2-yl)-methanone], the IC50 amounted to 70 nM. Take `COc1cc2c(N)nc(N3CCN(C(=O)c4cc5cc(F)cc(F)c5[nH]4)CC3)nc2c(F)c1OC` [Example 22, [4-(4-Amino-8-fluoro-6,7-dimethoxy-quinazolin-2-yl)-piperazin-1-yl]-(5,7-difluoro-1H-indol-2-yl)-methanone]: the IC50 is 17 nM. As to `COc1cc2c(N)nc(N3CCN(C(=O)c4cc5cc(C#N)ccc5[nH]4)C[C@@H]3C)nc2c(F)c1OC` [Example 23, 2-[(S)-4-(4-Amino-8-fluoro-6,7-dimethoxy-quinazolin-2-yl)-3-methyl-piperazine-1-carbonyl]-1H-indole-5-carbonitrile], the 50% inhibitory concentration (IC50) was 15 nM. `COc1cc2c(N)nc(N3CCN(C(=O)c4cc5cc(F)ccc5[nH]4)C[C@@H]3C)nc2c(F)c1OC` [Example 24, [(S)-4-(4-Amino-8-fluoro-6,7-dimethoxy-quinazolin-2-yl)-3-methyl-piperazin-1-yl]-(5-fluoro-1H-indol-2-yl)-methanone]: the IC50 was 90 nM.

On to `CC[C@H]1CN(C(=O)c2cc3cc(C#N)ccc3[nH]2)CCN1c1nc(N)c2cc(OC)c(OC)c(F)c2n1` [Example 25, 2-[(S)-4-(4-Amino-8-fluoro-6,7-dimethoxy-quinazolin-2-yl)-3-ethyl-piperazine-1-carbonyl]-1H-indole-5-carbonitrile], for which the IC50 is 6 nM. As to `CCC[C@H]1CN(C(=O)c2cc3cc(C#N)ccc3[nH]2)CCN1c1nc(N)c2cc(OC)c(OC)c(F)c2n1` [Example 26, 2-[(S)-4-(4-Amino-8-fluoro-6,7-dimethoxy-quinazolin-2-yl)-3-propyl-piperazine-1-carbonyl]-1H-indole-5-carbonitrile], the concentration for half-maximal inhibition (IC50) was found to be 11 nM. Turning to `CCC[C@H]1CN(C(=O)c2cc3cc(F)ccc3[nH]2)CCN1c1nc(N)c2cc(OC)c(OC)c(F)c2n1` [Example 27, [(S)-4-(4-Amino-8-fluoro-6,7-dimethoxy-quinazolin-2-yl)-3-propyl-piperazin-1-yl]-(5-fluoro-1H-indol-2-yl)-methanone], the IC50 came to 280 nM. As to `COc1cc2c(N)nc(N3CCN(C(=O)c4cc5cc(C#N)ccc5[nH]4)C[C@@H]3c3ccccc3)nc2c(F)c1OC` [Example 28, 2-[(S)-4-(4-Amino-8-fluoro-6,7-dimethoxy-quinazolin-2-yl)-3-phenyl-piperazine-1-carbonyl]-1H-indole-5-carbonitrile], the IC50 amounted to 5 nM. Regarding `COc1cc2c(N)nc(N3CCN(C(=O)c4cc5cc(F)ccc5[nH]4)C[C@@H]3c3ccccc3)nc2c(F)c1OC` [Example 29, (S)-(4-(4-amino-8-fluoro-6,7-dimethoxyquinazolin-2-yl)-3-phenylpiperazin-1-yl)(5-fluoro-1H-indol-2-yl)methanone], the IC50 was 14 nM. In the case of `COCCOc1c(OC)cc2c(N)nc(N3CCN(C(=O)c4cc5cc(Cl)ccc5[nH]4)C[C@@H]3C)nc2c1F` [Example 30, {(S)-4-[4-Amino-8-fluoro-6-methoxy-7-(2-methoxy-ethoxy)-quinazolin-2-yl]-3-methyl-piperazin-1-yl}-(5-chloro-1H-indol-2-yl)-methanone] it was 70 nM.
